Laboratory results taken from patent US6723753B2, “Substituted n-benzyl-n-phenyl aminoalcohol compounds useful for inhibiting cholesteryl ester transfer protein activity” (Pharmacia Corporation, priority 2002, dated 2004).
pIC50: −log10 of the molar value.

Molecular target: T1, CETP (Homo sapiens, UniProt P11597)
T1 sequence (P11597 18-493): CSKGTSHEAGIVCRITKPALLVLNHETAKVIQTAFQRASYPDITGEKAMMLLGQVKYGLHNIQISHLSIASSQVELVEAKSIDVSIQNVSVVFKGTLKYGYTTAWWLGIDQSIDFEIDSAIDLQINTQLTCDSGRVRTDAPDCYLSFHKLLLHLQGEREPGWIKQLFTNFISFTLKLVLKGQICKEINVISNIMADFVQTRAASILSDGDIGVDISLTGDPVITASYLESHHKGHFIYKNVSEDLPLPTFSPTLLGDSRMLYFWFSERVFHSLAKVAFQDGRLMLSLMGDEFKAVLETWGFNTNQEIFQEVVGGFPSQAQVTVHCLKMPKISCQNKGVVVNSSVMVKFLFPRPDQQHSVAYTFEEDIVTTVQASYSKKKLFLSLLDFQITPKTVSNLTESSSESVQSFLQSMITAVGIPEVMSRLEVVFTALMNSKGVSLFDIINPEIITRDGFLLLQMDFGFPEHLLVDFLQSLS
Assay: Assay of CETP Inhibition using Purified Components (Reconstituted Buffer Assay)
Format: biochemical
Set-up: made in house; host or cells: CHO cells (serum-free conditioned medium)
Details: Inhibition of CETP activity in reconstituted buffer assay; transfer of [3H]CE from HDL to LDL; read-out: IC50
In short: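 Purified human recombinant CETP from transfected CHO cells was incubated with [^3H]CE-labeled HDL donor and LDL acceptor in Tris pH 7.4/NaCl/EDTA/1% BSA buffer for 2 h at 37 °C. LDL was then precipitated with dextran sulfate/MgCl2, filtered, and counted by liquid scintillation to give IC50 for CE transfer.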

Row | Structure (SMILES) | pIC50
1 | OC(CN(Cc1cccc(OC(F)(F)C(F)F)c1)c1cccc(OCc2nccn2Cc2ccccc2)c1)C(F)(F)F (stereo not shown) [Example 430] | < 4.30
2 | OC(CN(Cc1cccc(OC(F)(F)C(F)F)c1)c1cccc(OCc2csc3ccc(Cl)cc23)c1)C(F)(F)F (stereo not shown) [Example 431] | 4.92
3 | OC(CN(Cc1cccc(OC(F)(F)C(F)F)c1)c1cccc(OCc2ccncc2)c1)C(F)(F)F (stereo not shown) [Example 433] | 5.25
4 | Nc1ccc(COc2cccc(N(Cc3cccc(OC(F)(F)C(F)F)c3)CC(O)C(F)(F)F)c2)cc1 (stereo not shown) [Example 434, 3-[[3-[(4-aminophenyl)methoxy]phenyl][[3-(1,1,2,2-tetrafluoro-ethoxy)phenyl]methyl]amino]-1,1,1-trifluoro-2-propanol] | < 4.30
5 | Nc1cccc(COc2cccc(N(Cc3cccc(OC(F)(F)C(F)F)c3)CC(O)C(F)(F)F)c2)c1 (stereo not shown) [Example 434B, 3-[[3-[(3-aminophenyl)methoxy]phenyl][[3-(1,1,2,2-tetrafluoro-ethoxy)-phenyl]methyl]amino]-1,1,1-trifluoro-2-propanol] | 5.19
6 | O=C(O)c1cccc(COc2cccc(N(Cc3cccc(OC(F)(F)C(F)F)c3)CC(O)C(F)(F)F)c2)c1 (stereo not shown) [Example 435, 3-[[3-[[[3-(1,1,2,2-tetrafluoroethoxy)phenyl]methyl](3,3,3-trifluoro-2-hydroxypropyl)amino]phenoxy]methyl]benzoic Acid] | < 4.30
7 | OC(CN(Cc1cccc(OC(F)(F)C(F)F)c1)c1cccc(Oc2cc(F)ccn2)c1)C(F)(F)F (stereo not shown) [Example 443] | < 4.30
8 | OC(CN(Cc1cccc(OC(F)(F)C(F)F)c1)c1cccc(-c2ccccn2)c1)C(F)(F)F (stereo not shown) [Example 451, 3-[[3-(2-pyridinyl)phenyl][[3-(1,1,2,2-tetrafluoroethoxy)phenyl]methyl]amino]-1,1,1-trifluoro-2-propanol] | 4.89
9 | OC(CN(Cc1cccc(OC(F)(F)C(F)F)c1)c1cccc(-c2ccco2)c1)C(F)(F)F (stereo not shown) [Example 453] | 5.10
10 | Cc1cccnc1-c1cccc(N(Cc2cccc(OC(F)(F)C(F)F)c2)CC(O)C(F)(F)F)c1 (stereo not shown) [Example 455] | 4.66
11 | O=C(c1cccc(N(Cc2cccc(OC(F)(F)C(F)F)c2)CC(O)C(F)(F)F)c1)N1CCCCC1 (stereo not shown) [Example 456] | 5.04
12 | CC(C)NC(=O)c1cccc(N(Cc2cccc(OC(F)(F)C(F)F)c2)CC(O)C(F)(F)F)c1 (stereo not shown) [Example 457] | 4.89
13 | CCCCNC(=O)c1cccc(N(Cc2cccc(OC(F)(F)C(F)F)c2)CC(O)C(F)(F)F)c1 (stereo not shown) [Example 458] | 4.89
14 | O=C(NC1CCCC1)c1cccc(N(Cc2cccc(OC(F)(F)C(F)F)c2)CC(O)C(F)(F)F)c1 (stereo not shown) [Example 461] | 4.89
15 | CC(C)(C)CNC(=O)c1cccc(N(Cc2cccc(OC(F)(F)C(F)F)c2)CC(O)C(F)(F)F)c1 (stereo not shown) [Example 462] | 4.92
16 | O=C(NCC(F)(F)F)c1cccc(N(Cc2cccc(OC(F)(F)C(F)F)c2)CC(O)C(F)(F)F)c1 (stereo not shown) [Example 463] | 4.89
17 | O=C(NCc1ccccc1)c1cccc(N(Cc2cccc(OC(F)(F)C(F)F)c2)CC(O)C(F)(F)F)c1 (stereo not shown) [Example 465] | < 4.30
18 | O=C(NCc1cccc(OC(F)(F)F)c1)c1cccc(N(Cc2cccc(OC(F)(F)C(F)F)c2)CC(O)C(F)(F)F)c1 (stereo not shown) [Example 466] | 4.92
19 | O=C(NCc1ccc(F)cc1)c1cccc(N(Cc2cccc(OC(F)(F)C(F)F)c2)CC(O)C(F)(F)F)c1 (stereo not shown) [Example 467] | < 4.30
20 | CN(C(=O)c1cccc(N(Cc2cccc(OC(F)(F)C(F)F)c2)CC(O)C(F)(F)F)c1)c1ccccc1 (stereo not shown) [Example 468] | 4.46
21 | CN(Cc1ccccc1)C(=O)c1cccc(N(Cc2cccc(OC(F)(F)C(F)F)c2)CC(O)C(F)(F)F)c1 (stereo not shown) [Example 469] | < 4.30
22 | CN1CCN(C(=O)c2cccc(N(Cc3cccc(OC(F)(F)C(F)F)c3)CC(O)C(F)(F)F)c2)CC1 (stereo not shown) [Example 470] | < 4.30
23 | O=C(c1cccc(N(Cc2cccc(OC(F)(F)C(F)F)c2)CC(O)C(F)(F)F)c1)N1CCCC1 (stereo not shown) [Example 472] | 4.96
24 | OC(CN(Cc1cccc(OC(F)(F)C(F)F)c1)c1cccc(Sc2ccncc2)c1)C(F)(F)F (stereo not shown) [Example 474] | 5.22
25 | OC(CN(Cc1cccc(OC(F)(F)C(F)F)c1)c1cccc(SC2CCNCC2)c1)C(F)(F)F (stereo not shown) [Example 476] | < 4.30
26 | OC(CN(Cc1cccc(OC(F)(F)C(F)F)c1)c1cccc(SCc2ccccn2)c1)C(F)(F)F (stereo not shown) [Example 477] | 4.96
27 | CS(=O)(=O)c1ccc(Sc2cccc(N(Cc3cccc(OC(F)(F)C(F)F)c3)CC(O)C(F)(F)F)c2)cc1 (stereo not shown) [Example 479] | < 4.30

Compounds with a higher pIC50, results first:

Row | pIC50 | Structure (SMILES)
28 | 5.34 | OC(CN(Cc1cccc(OC(F)(F)C(F)F)c1)c1cccc(-c2cccnc2)c1)C(F)(F)F (stereo not shown) [Example 454]
29 | 5.41 | OC(CN(Cc1cccc(OC(F)(F)C(F)F)c1)c1cccc(Oc2cncnc2)c1)C(F)(F)F (stereo not shown) [Example 449]
30 | 5.48 | O=C(NC1CCCCC1)c1cccc(N(Cc2cccc(OC(F)(F)C(F)F)c2)CC(O)C(F)(F)F)c1 (stereo not shown) [Example 459]
31 | 5.52 | CC(C)(C)NC(=O)c1cccc(N(Cc2cccc(OC(F)(F)C(F)F)c2)CC(O)C(F)(F)F)c1 (stereo not shown) [Example 460]
32 | 5.52 | O=C(NCC(F)(F)C(F)(F)C(F)(F)F)c1cccc(N(Cc2cccc(OC(F)(F)C(F)F)c2)CC(O)C(F)(F)F)c1 (stereo not shown) [Example 464]
33 | 5.55 | OC(CN(Cc1cccc(OC(F)(F)C(F)F)c1)c1cccc(Oc2ccc(C(F)(F)F)cn2)c1)C(F)(F)F (stereo not shown) [Example 445]
34 | 5.57 | OC(CN(Cc1cccc(OC(F)(F)C(F)F)c1)c1cccc(-c2cccs2)c1)C(F)(F)F (stereo not shown) [Example 452]
35 | 5.66 | CC(C)(C)c1ccc(Oc2cccc(N(Cc3cccc(OC(F)(F)C(F)F)c3)CC(O)C(F)(F)F)c2)cc1 (stereo not shown) [Example 437]
36 | 5.72 | OC(CN(Cc1cccc(OC(F)(F)C(F)F)c1)c1cccc(SCc2cc(Cl)cs2)c1)C(F)(F)F (stereo not shown) [Example 480]
37 | 5.74 | CC(=O)c1ccc(Sc2cccc(N(Cc3cccc(OC(F)(F)C(F)F)c3)CC(O)C(F)(F)F)c2)cc1 (stereo not shown) [Example 478]
38 | 5.82 | OC(CN(Cc1cccc(OC(F)(F)C(F)F)c1)c1cccc(Oc2ncccc2C(F)(F)F)c1)C(F)(F)F (stereo not shown) [Example 444]
39 | 5.82 | CCOC(=O)c1cccc(N(Cc2cccc(OC(F)(F)C(F)F)c2)CC(O)C(F)(F)F)c1 (stereo not shown) [Example 456B, ethyl 3-[[[3-(1,1,2,2-tetra-fluoroethoxy)phenyl]methyl](3,3,3-trifluoro-2-hydroxypropyl)amino]-benzoate]
40 | 5.92 | N#Cc1ncccc1Oc1cccc(N(Cc2cccc(OC(F)(F)C(F)F)c2)CC(O)C(F)(F)F)c1 (stereo not shown) [Example 441]
41 | 5.92 | OC(CN(Cc1cccc(OC(F)(F)C(F)F)c1)c1cccc(Oc2ccc(Br)cn2)c1)C(F)(F)F (stereo not shown) [Example 446]
42 | 5.96 | O=C(O)c1cncc(Oc2cccc(N(Cc3cccc(OC(F)(F)C(F)F)c3)CC(O)C(F)(F)F)c2)c1 (stereo not shown) [Example 442]
43 | 5.96 | CCNc1ccc(Oc2cccc(N(Cc3cccc(OC(F)(F)C(F)F)c3)CC(O)C(F)(F)F)c2)cc1 (stereo not shown) [Example 450B, 3-[[3-[4-(ethylamino)phenoxy]phenyl][[3-(1,1,2,2-tetrafluoroethoxy)phenyl]methyl]amino]-1,1,1-trifluoro-2-propanol]
